Data published in the NIST ThermoML archive (doi:10.1021/je300175w).
Several values for one entry are separate records, joined by “and”; a condition that tells them apart may be missing. Equal entries are not always repeated.

Test: mn = molality of the nth substance listed, in mol/kg
Settings: 101 kPa, Liquid, Sing-around technique in a fixed-path interferometer

CC(CO)(CO)CO [1,1,1-trimethylolethane] + O
speed of sound
Settings | 278.15 K | 283.15 K | 288.15 K | 293.15 K | 298.15 K | 308.15 K | 318.15 K
m1 = 0.09995 | 1433.9 m/s and 1433.8 m/s | 1454.4 m/s | 1472.6 m/s | 1488.5 m/s | 1502.4 m/s and 1502.5 m/s | 1525 m/s | 1540.9 m/s
m1 = 0.1985 | 1441.3 m/s | 1461.3 m/s | 1479 m/s | 1494.5 m/s | 1508 m/s and 1508.1 m/s | 1529.9 m/s | 1545.2 m/s and 1545.5 m/s
m1 = 0.291 | 1448.2 m/s | 1467.7 m/s | 1484.9 m/s | 1500.1 m/s | 1513.2 m/s | 1534.4 m/s and 1534.7 m/s | 1549.1 m/s and 1549 m/s
m1 = 0.3923 | 1455.6 m/s | 1474.6 m/s | 1491.3 m/s and 1491.4 m/s | 1506.1 m/s | 1518.8 m/s | 1539.3 m/s and 1539.6 m/s | 1553.3 m/s and 1553.2 m/s
m1 = 0.4962 | 1463.1 m/s | 1481.5 m/s and 1481.6 m/s | 1497.8 m/s | 1512.1 m/s | 1524.4 m/s and 1524.5 m/s | 1544.2 m/s and 1544.5 m/s | 1557.6 m/s and 1557.4 m/s
m1 = 0.6042 | 1470.7 m/s | 1488.6 m/s | 1504.4 m/s | 1518.2 m/s | 1530.1 m/s and 1530.2 m/s | 1549.2 m/s and 1548.9 m/s | 1561.9 m/s and 1561.7 m/s
